Laboratory results taken from patent publication US7795218B2, “ADP-ribosyl transferase fusion variant proteins” (priority 2003, dated 2010).

Tests used:
Format in all cases: cell-based, human
HUVEC [1] = experiment: VEGF-dependent HUVEC migration (transwell); settings: 20 hours
Description: FIG. 33 illustrates that SEQ ID NO: 10 can modify VEGF-dependent HUVEC migration, wherein in (A) HUVEC were seeded into 24-well-fibronectin-coated transwell chambers containing SEQ ID NO: 10, Fasudil or Tranilast, migration was stimulated for 20 hours with 10 ng/mL of VEGF with or without test compound, migrated cells were measured by fluorescence using Calcein-AM as a probe, and in (B) HUVEC were pre-treated for 24 hours with 50 μg/mL of SEQ ID NO: 10 prior to the start of migration (results are expressed as a percentage of that from untreated cells stimulated with VEGF±SEM and represent 4 independent experiments analyzed in duplicate; symbols * and *** represent, respectively, significant (p<0.05) and highly significant (p<0.001) difference from untreated cells+VEGF (Control+VEGF); symbol # # # represents significant difference (p<0.001) from untreated cells−VEGF (Control−VEGF));
Another cellular function and part of the angiogenic process that is known to be perturbed by Rho GTPase inhibition is endothelial cell migration. In order to evaluate the effect of SEQ ID NO: 10 on HUVEC migration, cells are seeded in the upper side of a transwell insert along with the desired test compounds, and migration is then induced with 10 ng/mL of VEGF at the bottom side of the insert. After 20 hours of migration, cells that pass through the membrane of the insert are labeled with calcein AM probe and detected via fluorescence. […].

HUVEC [2] = experiment: HUVEC tube formation on ECmatrix; settings: 50 μM
Description: FIG. 31 illustrates that SEQ ID NO: 10 decreases tube formation in HUVEC, wherein HUVEC were seeded on solidified ECmatrix™ without (Control) or with 10 μg/mL or 50 μg/mL of SEQ ID NO: 10 or the angiogenesis inhibitor Tranilast, cells were also incubated with 10 μM or 50 μM of the ROCK inhibitor Fasudil, capillary-like structures were visualized between 6 h to 20 h incubation, and wherein in (A) photographs were taken under phase contrast inverted microscope at 40× magnification and (B) quantification of tube length was reported as percentage of the length from untreated cells SEM (photographs and quantification are representative of at least 2 independent experiments analyzed in triplicate; symbols * and ** represent respectively significant (p<0.05) and highly significant (p<0.01) difference from untreated cells);
Referring to FIG. 31, to evaluate the importance of the signalling pathway Rho-Rock in angiogenesis, Transilat (10 μg/ml and 50 μg/ml) is used as a positive control. Transilat is known to block one of the principal angiogenesis routes i.e. the VEGF pathway. The binding of VEGF to VEGF-R stimulates tyrosine auto-phosphorylation of one of the receptors which initiates a signalling pathway, in part through PKC. Tranilast acts by inhibiting VEGF dependent PKC activation. […]

HUVEC [3] = experiment: HUVEC proliferation (Alamar blue); settings: up to 100 μg/mL (or μM), 24 hr or 72 hr
Description: FIG. 32 illustrates that SEQ ID NO: 10 affects HUVEC proliferation at high concentration, wherein HUVEC were plated in 96 wells (collagen 1-coated) and incubated during 24 h or 72 with 0 to 100 μg/mL (or μM) of SEQ ID NO: 10, Fasudil or Tranilast, cells from 4 h and 24 h were washed out and replenished with fresh media containing no test compounds and left until 72 hours, and at the end of treatment (72 hours) Alamar blue was added, incubated for 4 hours and fluorescence was measured. Proliferation is represented in a graph as a percentage of that from untreated cells (0 μg/mL)±S.D. and represents 2 independent studies analyzed in triplicate;
Given that SEQ ID NO: 10 efficiently ribosylates RhoA and therefore inhibits its activity under these conditions, it appears that the proliferation of HUVEC in this system, along with this part of the angiogenic sequence, proceeds independently of RhoA activity. In contrast, HUVEC proliferation seems to depend on Rho kinase activity as well as on the activity of those targets, possibly including protein kinase C, blocked by Tranilast.

SMILES | decrease of VEGF-induced HUVEC migration (HUVEC [1]; 10 μg/mL) [%] | decrease of VEGF-induced HUVEC migration (HUVEC [1]; 50 μg/mL) [%] | decrease of tube formation (HUVEC [2]) [%] | decrease of VEGF-induced HUVEC migration (HUVEC [1]; 50 μM) [%] | HUVEC proliferation (HUVEC [3])
COc1ccc(/C=C/C(=O)Nc2ccccc2C(=O)O)cc1OC [Tranilast] | 45 | 72 |  |  | 
O=S(=O)(c1cccc2cnccc12)N1CCCNCC1 [Fasudil] |  |  | 58 | 66 | significant (p<0.01) reductions in HUVEC cell proliferation
